According to US20150355456A1, “ELECTROWETTING FLUIDS” (MERCK PATENT GMBH, priority 2013, published 2015):

Columns and labels:
[1] = Solubility from absorbance of a filtered over-saturated dye sample; assay type: physicochemical; conditions: concentration extrapolated via calibration curve and Beer Lambert Law
Method: (§1) a) Dye mixtures using the novel dyes are prepared to obtain neutral black samples that can be used in EWD. b) Solubility is measured by filtering an over-saturated sample of dissolved dye, measuring the resulting absorbance value, and extrapolating the concentration using a calibration curve and Beer Lambert Law (Absorbance=∈cl, where ∈ is the extinction coefficient of the material, calculated from a calibration curve, c is concentration, and l is the path length of the measurement). c) The absorbance is measured using a Hitachi U3310 spectrophotometer with a 5 micron path length under a single pass transmission measurement condition. d) The impact of the dye on the electrical properties is measured by comparing the dielectric constant of a series of formulations with increasing dye content. There is a linear relationship between dye concentration and dielectric constant, the gradient of which is indicative of the polarisability of the dye. This gradient value is denoted as an ‘alpha value’. A low alpha value indicates a smaller change in dielectric constant as dye concentration increases, and is desirable. High alpha values indicate that the dye has a large impact on the dielectric constant of the solvent, which will likely have a negative impact on the behaviour of the fluid in an electrowetting display pixel.

[2] = Extinction coefficient from calibration curve; assay type: physicochemical; conditions: extinction coefficient calculated from calibration curve
[3] = Alpha value: gradient of dielectric constant against dye concentration (polarisability); assay type: physicochemical; conditions: gradient of dielectric constant vs dye concentration; low value desirable
Method: as §1

Solubility % [1] | melting point | εmax [2] | Alpha value [3] | Compound
0.22% | 79 to 81 °C | – | – | CCCCCCCCCCCCCC1(C)Nc2cccc3c(/N=N/c4ccc(/N=N/c5ccc(CCCC)cc5)c5ccccc45)ccc(c23)N1 (stereo not shown) [Dye 1, 6-((E)-(4-((E)-(4-Butylphenyl)diazenyl)naphthalen-1-yl)diazenyl)-2-methyl-2-tridecyl-2,3-dihydro-1H-perimidine]
19.53% | – | 40107 | 2.9360 | CCCCCCCCCCCCCC1(C)N(CCCCCCCC)c2cccc3c(/N=N/c4ccc(/N=N/c5ccc(CCCC)cc5)c5ccccc45)ccc(c23)N1CCCCCCCC (stereo not shown) [Dye 2, 6-((E)-(4-((E)-(4-butylphenyl)diazenyl)naphthalen-1-yl)diazenyl)-2-methyl-1,3-dioctyl-2-tridecyl-2,3-dihydro-1H-perimidine]
28.66% | – | 38954 | – | CCCCc1ccc(/N=N/c2cc(OCC(CC)CCCC)c(/N=N/c3ccc(N(CC(CC)CCCC)CC(CC)CCCC)cc3C)cc2C)cc1 (stereo not shown) [Dye 14, 4-((E)-(4-((E)-(4-butylphenyl)diazenyl)-2-(2-ethylhexyloxy)-5-methylphenyl)diazenyl)-N,N-bis(2-ethylhexyl)-3-methylaniline]
